Patent US20090068290A1, “BIFEPRUNOX DOSES FOR TREATING SCHIZOPHRENIA” (priority 2006, published 2009)

What was measured:
Assay type in all cases: in vivo, human
[1] = system: adult subjects with schizophrenia; experiment: PANSS general psychopathology subscale score, Clinical Study Two; conditions: LOCF; for Change from Baseline in General Psychopathology Subscale Score, Mean (SD) / Change from Baseline in General Psychopathology Subscale Score, Median: Risperidone 6 mg, ITT population
Protocol: (§1) Rating scale assessments were performed weekly, except for week 5, to measure the change from baseline to endpoint of the PANSS total score. Other assessments included: PANSS positive symptom subscale score, PANSS negative symptom subscale score, PANSS general pschopathology subscale score, BPRS total score, BPRS psychosis score, the CGI-S score, the CGI-I score, responder rates based on the PANSS total score, and the Calgary Depression Scale for Schizophrenia (CDSS). […]
(§2) Subjects who completed this study had the option to continue in the long-term. […] Risperidone-treated subjects were titrated from 2 mg to 6 mg daily over a three-day period and were subsequently maintained at 6 mg/day for the remainder of the treatment period. […] Blood samples were also obtained at Screening/Baseline, Week 3, and Week 6 for clinical laboratory assessments.

[2] = Body weight, Clinical Study Two; conditions: Risperidone 6 mg
[3] = system: adult subjects with schizophrenia; experiment: BPRS psychosis cluster score, Clinical Study Two; conditions: LOCF; for Change from Baseline in BPRS Psychosis Cluster Score, Mean (SD) / Change from Baseline in BPRS Psychosis Cluster Score, Median: Risperidone 6 mg, ITT population
Protocol: as §1, §2

[4] = system: adult subjects with schizophrenia; experiment: PANSS responder rates, Clinical Study One; conditions: Risperidone 6 mg; ITT
Protocol: There were five treatment groups in this study. […] Study medication was administered once daily. After Baseline measurements were performed, the titration phase was begun. Bifeprunox treated subjects were titrated up to 5 mg, 10 mg or 20 mg according to a standardized titration schedule (Day 1: 0.125 mg, Day 2: 0.25 mg, Day 3: 0.5 mg, Day 4: 1.0 mg, Day 5: 2.0 mg, Day 6: 5.0 mg, Day 7: 10.0 mg, Day 8: 20 mg). When the assigned dose was reached, subjects were maintained at that dose for the remainder of the six-week treatment period.

[5] = system: adult subjects with schizophrenia; experiment: PANSS negative symptom subscale score, Clinical Study Two; conditions: Risperidone 6 mg, LOCF, ITT
Protocol: as §1, §2

Cc1nc2n(c(=O)c1CCN1CCC(c3noc4cc(F)ccc34)CC1)CCCC2 [Risperidone, risperidone, reference compound]
Change from Baseline in General Psychopathology Subscale Score, Mean (SD) ([1]; Week 1): −3.9 (5.6) | Change from Baseline in General Psychopathology Subscale Score, Median ([1]; Week 1): −4 | Change from Baseline in General Psychopathology Subscale Score, Mean (SD) ([1]; Week 2): −6.7 (7.3) | Change from Baseline in General Psychopathology Subscale Score, Median ([1]; Week 2): −6 | Change from Baseline in General Psychopathology Subscale Score, Mean (SD) ([1]; Week 3): −7.6 (7.7) | Change from Baseline in General Psychopathology Subscale Score, Median ([1]; Week 3): −8 | Change from Baseline in General Psychopathology Subscale Score, Mean (SD) ([1]; Week 4): −8.4 (8.5) | Change from Baseline in General Psychopathology Subscale Score, Median ([1]; Week 4): −9 | Change from Baseline in General Psychopathology Subscale Score, Mean (SD) ([1]; Week 6/Endpoint): −8.6 (9.8) | Change from Baseline in General Psychopathology Subscale Score, Median ([1]; Week 6/Endpoint): −9 | mean change (SD) from Baseline to Endpoint in PANSS general psychopathology subscale score ([1]; risperidone 6 mg, ITT): −8.6 (9.8) | Weight, Baseline Mean of subjects with Endpoint change [2]: 174.5 lbs | Weight, Baseline Mean of subjects with Week 6 change [2]: 166.6 lbs | Weight, Baseline, Max [2]: 404 lbs | Weight, Baseline, Mean (SD) [2]: 174.3 (58.5) lbs | Weight, Baseline, Median [2]: 170 lbs | Weight, Baseline, Min [2]: 82 lbs | Weight, Change from Baseline at Endpoint, Max [2]: 33 lbs | Weight, Change from Baseline at Endpoint, Mean (SD) [2]: 3.2 (7.4) lbs | Weight, Change from Baseline at Endpoint, Median [2]: 2 lbs | Weight, Change from Baseline at Endpoint, Min [2]: −20 lbs | Weight, Change from Baseline at Week 6, Max [2]: 33 lbs | Weight, Change from Baseline at Week 6, Mean (SD) [2]: 4.1 (7.6) lbs | Weight, Change from Baseline at Week 6, Median [2]: 2 lbs | Weight, Change from Baseline at Week 6, Min [2]: −12 lbs | mean weight change at Endpoint [2]: 3.2 lbs | Change from Baseline in BPRS Psychosis Cluster Score, Mean (SD) ([3]; Week 1): −2.3 (2.4) | Change from Baseline in BPRS Psychosis Cluster Score, Median ([3]; Week 1): −2 | Change from Baseline in BPRS Psychosis Cluster Score, Mean (SD) ([3]; Week 2): −3.6 (3.0) | Change from Baseline in BPRS Psychosis Cluster Score, Median ([3]; Week 2): −4 | Change from Baseline in BPRS Psychosis Cluster Score, Mean (SD) ([3]; Week 3): −4.3 (3.4) | Change from Baseline in BPRS Psychosis Cluster Score, Median ([3]; Week 3): −4 | Change from Baseline in BPRS Psychosis Cluster Score, Mean (SD) ([3]; Week 4): −4.7 (3.6) | Change from Baseline in BPRS Psychosis Cluster Score, Median ([3]; Week 4): −5 | Change from Baseline in BPRS Psychosis Cluster Score, Mean (SD) ([3]; Week 6/Endpoint): −4.9 (4.0) | Change from Baseline in BPRS Psychosis Cluster Score, Median ([3]; Week 6/Endpoint): −5 | mean change (SD) from Baseline to Endpoint in BPRS psychosis cluster score ([3]; risperidone 6 mg, ITT): −4.9 (4.0) | PANSS Responder at Endpoint (LOCF), 20% Definition [4]: 46 (40) n (%) | PANSS Responder at Endpoint (LOCF), 25% Definition [4]: 34 (29) n (%) | PANSS Responder at Endpoint (LOCF), 30% Definition [4]: 26 (22) n (%) | PANSS Responder at Endpoint (LOCF), 35% Definition [4]: 15 (13) n (%) | Change from Baseline in PANSS Negative Symptom Subscale Score, Mean (SD) ([5]; Week 1): −1.5 (3.0) | Change from Baseline in PANSS Negative Symptom Subscale Score, Median ([5]; Week 1): −2 | Change from Baseline in PANSS Negative Symptom Subscale Score, Mean (SD) ([5]; Week 2): −2.9 (4.3) | Change from Baseline in PANSS Negative Symptom Subscale Score, Median ([5]; Week 2): −3 | Change from Baseline in PANSS Negative Symptom Subscale Score, Mean (SD) ([5]; Week 3): −3.3 (4.9) | Change from Baseline in PANSS Negative Symptom Subscale Score, Median ([5]; Week 3): −3 | Change from Baseline in PANSS Negative Symptom Subscale Score, Mean (SD) ([5]; Week 4): −3.8 (5.5) | Change from Baseline in PANSS Negative Symptom Subscale Score, Median ([5]; Week 4): −4 | Change from Baseline in PANSS Negative Symptom Subscale Score, Mean (SD) ([5]; Week 6/Endpoint): −3.8 (5.5) | Change from Baseline in PANSS Negative Symptom Subscale Score, Median ([5]; Week 6/Endpoint): −3
